Read-outs that look alike come from different tables or passages of the source.
What was measured:
human BRS3 [1] = biological target: T1, human BRS3 (Homo sapiens, UniProt P32247); test: Aequorin bioluminescent assay to measure intracellular Ca++ (HEK293AEQ cells); format: cell-based; conditions: read-out: human BRS-3 EC50
T1 construct: expressed in transfected cells
T1 sequence (P32247 1-399): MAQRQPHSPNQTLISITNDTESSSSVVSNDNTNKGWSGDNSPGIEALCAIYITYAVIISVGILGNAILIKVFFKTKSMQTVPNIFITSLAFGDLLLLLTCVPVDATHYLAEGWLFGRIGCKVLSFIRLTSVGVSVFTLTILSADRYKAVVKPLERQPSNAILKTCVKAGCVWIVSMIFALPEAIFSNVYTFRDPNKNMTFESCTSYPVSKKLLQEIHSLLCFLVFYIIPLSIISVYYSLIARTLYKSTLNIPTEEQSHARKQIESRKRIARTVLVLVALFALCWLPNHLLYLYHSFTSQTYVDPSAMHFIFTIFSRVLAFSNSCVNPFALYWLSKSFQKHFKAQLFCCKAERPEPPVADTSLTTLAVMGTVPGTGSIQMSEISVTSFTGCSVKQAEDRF
Method: HEK293/AEQ cell lines stably expressing either human, rat or mouse BRS3 cDNA were generated using standard cell biology techniques and were used for all functional assays and to prepare membranes for the rat BRS3 binding assay. […] The transfected cells were used to prepare membranes for the [^3H]-biphenyl binding assay and for the functional assays. The cells were maintained in culture under the same conditions used for the human and rat stable BRS3 HEK293AEQ cell lines. All cells were grown as attached monolayers to approximately 90% confluency in tissue culture flasks under the appropriate media in an incubator at 37° C. with 5% CO2. Cells were passed 1:3 to 1:5 twice a week depending on the rate of growth.
The same media (8 mL) containing 20 μM coelenterzine was added to the cells and incubated at 37° C. for 1 hr. The media was aspirated and the flasks rinsed with 6 mL ECB buffer (140 mM NaCl, 20 mM KCl, 20 mM HEPES, 5 mM glucose, 1 mM MgCl, 1 mM CaCl, 0.1 mg/mL BSA, pH 7.4). The cells were dissociated with a rubber-tipped scraper in 6 mL of fresh ECB buffer and collected by centrifugation at 2500 rpm for 5 minutes. The cell pellets were resuspended in ECB buffer to a concentration of 200,000 cells/mL and were either used right away or quickly frozen in liquid nitrogen for storage at −80° C. for up to six weeks.
The Aequorin assay itself was performed in 96-well format using a Wallac Microbeta luminometer equipped with microinjector module. Compounds in DMSO (0.5% final concentration) were titrated in the plates at 2× concentration in a volume of 0.1 mL ECB buffer. The cells (20,000 per well) were then injected in 0.1 mL ECB buffer and the bioluminescence monitored for 30 seconds. Alternatively, total bioluminescence was determined over 10 minutes. The bioluminescent readings were plotted vs. the log molar concentration of receptor ligand (compound). The EC50 for activation was reported as the inflection point of the resulting sigmoidal curve.

human BRS3 [2] = biological target: T1, human BRS3; test: [125I]-dY-peptide radioligand binding assay (filtration, membranes)
Method: Dissociated cells were collected by centrifuging at 1000 rpm for 10 minutes. Cell pellets were resuspended and homogenized at 4° C. using a Polytron homogenizer (setting 40, 20 stokes) in approximately 10 mL membrane preparation buffer (10 mM Tris pH 7.4, 0.01 mM Pefabloc, 10 μM phosphoramidon and 40 μg/mL Bacitracin) per T175 flask. After centrifugation at 2200 rpm (1000×g) for 10 minutes at 4° C., the supernatant was transferred to a clean centrifuge tube and spun at 18,000 rpm (38,742×g) for 15 minutes. at 4° C.
The filters were washed five times with ice-cold washing buffer (1×PBS without Mg^++ and Ca^++). The radioactivity was determined by adding 30 μl of microscintillant/well after each plate was dried at room temperature overnight or placed at 50° C. for 1 hr.
A Packard Top Count was used to read the filter plates. The data in % inhibition of binding was plotted vs. the log molar concentration of receptor ligand (compound). The IC50 was reported as the inflection point of the resulting sigmoidal curve. […] The binding assays for the rat and mouse Bombesin Receptor Subtype 3 (BRS3) were performed in a similar fashion.

[3] = Bombesin Subtype-3 Receptor agonism, method C, racemic mixture or the more potent enantiomer after HPLC separation
[4] = Bombesin Subtype-3 Receptor Binding, method A, racemic mixture or the more potent enantiomer after HPLC separation, read-out: human BRS-3 IC50

| Compound | EC50 (human BRS3 [1]; [3]) | IC50 (human BRS3 [2]; [4]) | IC50 (human BRS3 [2]) | EC50 (human BRS3 [1]) | IC50 (human BRS3 [2]; read-out: human BRS-3 IC50) |
| --- | --- | --- | --- | --- | --- |
| CC(C)(C)c1ccc(S(=O)(=O)N2Cc3ccc(C(F)(F)F)nc3Nc3cccc(-c4noc(CO)n4)c32)cc1 (racemic) [Example 5, {3-[6-[(4-tert-Butylphenyl)sulfonyl]-2-(trifluoromethyl)-6,11-dihydro-5H-pyrido[2,3-b]-[1,5]benzodiazepin-7-yl]-1,2,4-oxadiazol-5-yl}methanol] | 34 nM | 0.75 nM |  |  |  |
| CC(C)(C(N)=O)c1cccc2c1N(S(=O)(=O)c1ccc(OC(F)(F)F)cc1)Cc1ccc(C(F)(F)F)nc1N2 [Example 533, 2-Methyl-2-[6-{[4-(trifluoromethoxy)phenyl]sulfonyl}-2-(trifluoromethyl)-6,11-dihydro-5H-pyrido[2,3-b][1,5]-benzodiazepin-7-yl]propanamide] | 16 nM | 2.2 nM |  |  |  |
| O=S(=O)(c1ccc(OC(F)(F)F)cc1)N1Cc2ccc(C(F)(F)F)nc2Nc2cccc(-c3noc(CO)n3)c21 (racemic) [Example 7, {3-[6-{[4-(Trifluoromethoxy)phenyl]sulfonyl}-2-(trifluoromethyl)-6,11-dihydro-5H-pyrido[2,3-b]-[1,5]benzodiazepin-7-yl]-1,2,4-oxadiazol-5-yl}methanol] | 33 nM | 2.9 nM |  |  |  |
| CC(C)(C)c1ccc(S(=O)(=O)N2Cc3ccc(C(F)(F)F)nc3Nc3ccc(C(C)(C)C(=O)O)cc32)cc1 [Example 374, 2-[6-[(4-tert-Butylphenyl)sulfonyl]-2-(trifluoromethyl)-6,11-dihydro-5H-pyrido[2,3-b][1,5]benzodiazepin-8-yl]-2-methylpropanoic acid] | 130 nM | 4.9 nM |  |  |  |
| Cc1ccc2c(n1)N(S(=O)(=O)c1ccc(C(C)(C)C)cc1)Cc1ccc(C(F)(F)F)nc1N2 [Example 536] | 66 nM | 5.3 nM |  |  |  |
| CC(C)(C)c1ccc(S(=O)(=O)N2Cc3ccc(C(F)(F)F)nc3Nc3ccc(-c4noc(CO)n4)cc32)cc1 [Example 437, {3-[6-[(4-tert-Butylphenyl)sulfonyl]-2-(trifluoromethyl)-6,11-dihydro-5H-pyrido[2,3-b][1,5]benzodiazepin-8-yl]-1,2,4-oxadiazol-5-yl}methanol] | 121 nM | 4.1 nM |  |  |  |
| CC(C)(C)c1ccc(S(=O)(=O)N2Cc3ccc(C(F)(F)F)nc3Nc3ccc4ncccc4c32)cc1 [Example 316, 13-[(4-tert-Butylphenyl)sulfonyl]-9-(trifluoromethyl)-12,13-dihydro-7H-pyrido[2′,3′:5,6][1,4]diazepino[2,3-ƒ]quinoline] | 48 nM |  | 0.64 nM |  |  |
| O=S(=O)(c1ccc(C(F)(F)F)cc1)N1Cc2ccc(C(F)(F)F)nc2Nc2cccc(-c3noc(CO)n3)c21 (racemic) [Example 6, [3-(2-(Trifluoromethyl)-6-{[4-(trifluoromethyl)phenyl]sulfonyl}-6,11-dihydro-5H-pyrido[2,3-b]-[1,5]benzodiazepin-7-yl)-1,2,4-oxadiazol-5-yl]methanol] | 52 nM | 6.4 nM |  |  |  |
| CC(C)(O)c1nc(-c2cccc3c2N(S(=O)(=O)c2ccc(C4(C(F)(F)F)CC4)cc2)Cc2ccc(C(F)(F)F)nc2N3)no1 (racemic) [Example 4, 2-{3-[2-(Trifluoromethyl)-6-({4-[1-(trifluoromethyl)cyclopropyl]phenyl}sulfonyl)-6,11-dihydro-5H-pyrido[2,3-b][1,5]benzodiazepin-7-yl]-1,2,4-oxadiazol-5-yl}-2-propanol] | 139 nM | 3.3 nM |  |  |  |
| CC(C)(C)c1ccc(S(=O)(=O)N2Cc3ccc(C(F)(F)F)nc3Nc3ccncc32)cc1 [Example 464, 6-[(4-tert-Butylphenyl)sulfonyl]-2-(trifluoromethyl)-6,11-dihydro-5H-dipyrido[2,3-e:3′,4′-b][1,4]diazepine] | 196 nM | 38 nM |  |  |  |
| CC(C)(O)c1nc(-c2cccc3c2N(S(=O)(=O)c2ccc(OC(F)(F)F)cc2)Cc2ccc(C(F)(F)F)nc2N3)no1 (racemic) [Example 1, 2-{3-[6-{[4-(Trifluoromethoxy)phenyl]sulfonyl}-2-(trifluoromethyl)-6,11-dihydro-5H-pyrido[2,3-b][1,5]benzodiazepin-7-yl]-1,2,4-oxadiazol-5-yl}propan-2-ol] | 73 nM |  | 3.6 nM |  |  |
| CC(C)(C)c1ccc(S(=O)(=O)N2Cc3ccc(C(F)(F)F)nc3Nc3cccc(-c4noc(C(C)(C)O)n4)c32)cc1 (racemic) [Example 3, 2-{3-[6-[(4-tert-Butylphenyl)sulfonyl]-2-(trifluoromethyl)-6,11-dihydro-5H-pyrido[2,3-b][1,5]benzodiazepin-7-yl]-1,2,4-oxadiazol-5-yl}propan-2-ol] | 63 nM | 1.9 nM |  |  |  |
| Cc1ccc2c(c1C)N(S(=O)(=O)c1ccc(C(C)(C)C)cc1)Cc1ccc(C(F)(F)F)nc1N2 (racemic) [Example 251, 6-[(4-tert-Butylphenyl)sulfonyl]-7,8-dimethyl-2-(trifluoromethyl)-6,11-dihydro-5H-pyrido[2,3-b][1,5]benzodiazepine] | 100 nM |  | 1 nM |  |  |
| CC(C)(O)c1nc(C2(c3cccc4c3N(S(=O)(=O)c3ccc(OC(F)(F)F)cc3)Cc3ccc(C(F)(F)F)nc3N4)CCC2)no1 [Example 531, 2-(3-{1-[6-{[4-(Trifluoromethoxy)phenyl]sulfonyl}-2-(trifluoromethyl)-6,11-dihydro-5H-pyrido[2,3-b][1,5]benzodiazepin-7-yl]cyclobutyl}-1,2,4-oxadiazol-5-yl)propan-2-ol] |  |  |  | 94 nM | 0.65 nM |
| CC(C)(O)c1nc(-c2cccc3c2N(S(=O)(=O)c2ccc(C(F)(F)F)cc2)Cc2ccc(C(F)(F)F)nc2N3)no1 (racemic) [Example 2, 2-[3-(2-(Trifluoromethyl)-6-{[4-(trifluoromethyl)phenyl]sulfonyl}-6,11-dihydro-5H-pyrido[2,3-b][1,5]benzodiazepin-7-yl)-1,2,4-oxadiazol-5-yl]propan-2-ol] | 158 nM | 8.3 nM |  |  |  |

Source: patent US8153626B2, “Substituted diazepine sulfonamides as bombesin receptor subtype-3 modulators” (Merck Sharp & Dohme Corp., priority 2006, dated 2012)
